Measurements from patent US9770451B2, “Composition including ATM inhibitor for reducing cellular senescence and use of the composition” (Samsung Electronics Co., Ltd., priority 2014, dated 2017).

What was measured:
Format in all cases: cell-based, human
[1] = system: senescent fibroblasts (passage 37); test: Cell proliferation and formation of cell colonies (crystal violet staining); conditions: CP-466722; staining after 4 days
Procedure: A human fibroblast cell line was inoculated into a Dulbecco's Modified Eagle's medium (DMEM) containing 10% fetal bovine serum (FBS), 100 units/ml of penicillin, and 100 μg/ml of streptomycin (wherein these two antibiotics were purchased from Gibro-BRL, Grand Island, N.Y.), and then, cultured in a 5% CO2 incubator at a temperature of 37° C. The fibroblast cell line (i.e., M11 strain) was a cell line derived from the foreskin of a child. When the cells were grown to about 85% confluency in a plate, the cells were subjected to subculture. The early subculture was carried out at a split ratio of 1:4, and the late subculture was carried out at a split ratio of 1:2. When the cell doubling time was 14 days, the cells were considered to be senescent fibroblasts (passages 35 to 37).
To determine the optimal concentration upon the treatment with an ATM-kinase inhibitor KU-60019 (SELLECKCHEM, S1570, salt), the senescent fibroblasts (passage 37) were inoculated into each well of a 6-well plate at a concentration of 2,000 cells/well, and then, KU-60019 was added to each well of the 6-well plate ([…]). In addition, as a negative control group, the cells were cultured under the same conditions as described above, except that a medium used herein contained a dimethyl sulfoxide (DMSO) (0.05 (v/v) %) medium. […]

[2] = system: progeria senescent fibroblasts (passage 17); test: Lipofuscin autofluorescence (FACS); conditions: CP-466722 0.1 μM, 4 weeks
Procedure: (§1) In addition, the amounts of lipofuscin in the cells cultured as described above were measured. The progeria senescent fibroblasts (passage 17) that became senescent in the presence of KU-60019 (0.5 μM) were cultured in a CO2 incubator at a temperature of 37° C. for 4 weeks. The medium was replaced by a fresh medium containing KU-60019 (0.5 μM), once every 4 days. Lipofuscin is characterized by having autofluorescence capability, and in this regard, the cultured cells were irradiated with a wavelength of 488 nm by using a FACSCaliber (Beckton Dickinson), and then, measured with radiation emitted from a wavelength of 520 nm. The results were analyzed using Cell Quest 3.2 software (Beckton Dickinson). FIG. 11 is a graph showing lipofuscin measured in the cells that were cultured in the presence of KU-60019.
In addition, the amounts of lipofuscin in the cells cultured as described above were measured. […] Lipofuscin is characterized by having autofluorescence capability, and in this regard, the cultured cells were irradiated with a wavelength of 488 nm by using a FACSCaliber (Beckton Dickinson), and then, measured with radiation emitted from a wavelength of 520 nm. The results were analyzed using Cell Quest 3.2 software (Beckton Dickinson).

[3] = system: senescent myoblasts (passage 11); test: Lipofuscin autofluorescence (FACS); conditions: CP-466722 0.1 μM, 4 weeks
Procedure: as §1, with “The” for “The progeria”, “myoblast” for “fibroblasts”, “11)” for “17)”, “17” for “11”
In addition, the amounts of lipofuscin in the cells cultured as described above were measured. […] Lipofuscin is characterized by having autofluorescence capability, and in this regard, the cultured cells were irradiated with a wavelength of 488 nm by using a FACSCaliber (Beckton Dickinson), and then, measured with radiation emitted from a wavelength of 520 nm. The results were analyzed using Cell Quest 3.2 software (Beckton Dickinson). FIG. 23 is a graph showing lipofuscin measured in the cells that were cultured in the presence of CP-466722.

COc1cc2ncnc(-n3nc(-c4ccccn4)nc3N)c2cc1OC [CP-466722, 2-(6,7-dimethoxyquinazolin-4-yl)-5-(pyridin-2-yl)-2H-1,2,4-triazol-3-amine]
concentration producing best results in the cell proliferation and the formation of cell colonies [1]: 0.1 µM | amount of lipofuscin vs control [2]: significantly decreased | amount of lipofuscin vs control [3]: significantly decreased
